Data from US7968543B2 (priority 2007, dated 2011).
“Also recorded” adds a separate entry of the source. Read-outs that look alike come from different tables or passages of the source.

Tests used:
[1] = tested on: subcutaneous MV4-11 tumors
Procedure: Xenograft was initiated from MV4-11 FLT3-dependent human leukemia cells cultured in Iscove's Modified Dulbecco's medium supplemented with 10% heat-inactivated fetal bovine serum, 100 units/mL penicillin G, 100 μg/mL streptomycin sulfate, 0.25 μg/mL amphotericin B, 2 mM glutamine, 0.075% sodium bicarbonate, and 25 μg/mL gentamicin. Tumor cells were maintained in humidified atmosphere of 95% air and 5% CO2 at 37° C. The cells were harvested during logarithmic phase growth and resuspended at a concentration of 5×10^7 cells/mL in 50% Matrigel matrix (BD Biosciences) and 50% PBS. MV4-11 cells (1×10^7) were implanted subcutaneously into the right flank of each test mouse and the growth of tumors was monitored. Twelve days later, on Day 1 of the study, mice were placed in eight groups each consisting of ten mice with individual tumor sizes of 126 to 221 mm^3 and group mean tumor size of 174 mm^3, tumor volume calculated as a product of width×width×length in mm of an MV4-11 tumor. […] Each dose of drug was given in a volume of 0.2 mL per 20 g of body weight (10 mL/kg) and was adjusted for the body weight of the animal. Each animal was sacrificed when its tumor reached the predetermined endpoint size of 1,000 mm^3 or on the last day of the study (Day 59), whichever came first.
In a follow-on study at the 10 mg/kg oral dose, tumor size was monitored for an additional 60 days after dosing was discontinued.

[2] = Ninety-day toxicity study in rats; assay type: in vivo, rat
Procedure: (§1) For rats, the compound was administered at a dose of 1, 3, or 10 mg/kg/day.

[3] = Ninety-day toxicity study in dogs; assay type: in vivo, dog
Procedure: as §1
For dogs, the compound was administered at a dose of 1, 5, or 15 mg/kg/day.

[4] = Phase I clinical trial, safety and tolerability
Source text: (§2) The study was open labeled and designed to determine the safety, tolerability, dose limiting toxicity (DLT), pharmacokinetics and pharmacodynamics of escalating doses. […] If two or more patients in the expanded cohort experiences first course DLT, no further patients will enroll at that dose and the next lower dose level will be declared the maximum tolerated dose (MTD). Primary endpoints for the study are safety, tolerability, dose limiting toxicity (DLT), and PK. Secondary endpoint is PD.

[5] = tested on: relapsed or refractory acute myeloid leukemia; conditions: for Efficacy: Human, by comparison with efficacious exposure in mice
Source text: as §2

RS4-11 cell line = conditions: read-out: IC50 (nM), Proliferation, RS 4, 48 hour incubation
[6] = mouse, in vivo, 1 mg/kg
[7] = in vivo
in vivo = conditions: mouse, plasma, oral, 1 mg/kg
clinical = conditions: human, in vivo; for AUC(0-t): SS AUC0-24 (ng * h/mL)
[8] = Mouse oral pharmacokinetics / exposure
[9] = Phase I clinical trial, human oral pharmacokinetics; conditions: in vivo, 12 mg
[10] = follow-on study, 10 mg/kg oral, monitored 60 days after dosing discontinued, ten animals

CC(C)(C)c1cc(NC(=O)Nc2ccc(-c3cn4c(n3)sc3cc(OCCN5CCOCC5)ccc34)cc2)no1 [compound of Formula I, N-(5-tert-butyl-isoxazol-3-yl)-N′-{4-[7-(2-morpholin-4-yl-ethoxy)imidazo[2,1-b][1,3]benzothiazol-2-yl]phenyl}urea]
tumor response ([1]; 1 mg/kg (3 mg/m^2, p.o., QD)): tumor growth inhibition
tumor response ([1]; 3 mg/kg p.o. QD for 28 days): tumor regression
tumor response ([1]; 10 mg/kg p.o. QD for 28 days): tumor regression
Efficacy ([1]; Mouse, 1 mg/kg): Yes
complete responses [1, 10]: eight
partial responses [1, 10]: two
elevations in liver function tests (LFTS) ([2]; high dose (10 mg/kg/day)): 2- to 3 folds
neutropenia ([2]; high dose (very mild anemia)): Sustained neutropenia
clinical signs ([2]; low and middle doses (1, 3 mg/kg/day), 90 days): No significant clinical signs were observed
AUC at 90 days ([2]; rat, in vivo, 10 mg/kg/day, high dose, read-out: AUC at which LFT elevations were produced): ≥ 30 µM·h
half-life ([2]; rat, in vivo, read-out: terminal half-life (converted)): 5.7 h
AUC ([3]; dog, in vivo, 15 mg/kg/day, high dose, read-out: AUC at which LFT elevations were produced): ≥ 30 µM·h
half-life ([3]; dog, in vivo, read-out: terminal half-life (converted)): 5.9 h
weight gain suppression ([3]; high dose): 10%
elevations in liver function tests (LFTS) ([3]; high dose (15 mg/kg/day)): 3 to 6 folds
neutropenia ([3]; high dose (very mild anemia)): Sustained neutropenia
clinical signs ([3]; low and middle doses (1, 5 mg/kg/day), 90 days): No significant clinical signs were observed
deaths ([4]; Cohorts 1 and 2, one unrelated fungal infection, one congestive heart failure possibly drug related): Two
Grade 1 (mild) drug-related adverse events: instance of cough ([4]; human, in vivo): one
Grade 1 (mild) drug-related adverse events: instance of decreased appetite ([4]; human, in vivo): one
Grade 1 (mild) drug-related adverse events: instance of disgeusia ([4]; human, in vivo): one
Grade 1 (mild) drug-related adverse events: instances of abdominal distension/constipation ([4]; human, in vivo): two
Grade 1 (mild) drug-related adverse events: instances of nausea/vomiting ([4]; human, in vivo): two
dose limiting toxicity (DLT) ([4]; human, in vivo): reported as a DLT
grade of other possibly drug-related AEs ([4]; human, in vivo): ≤ 2 grade
hematological toxicity ([4]; human, in vivo): no hematological toxicity was observed
MTD ([4]; up to 450 mg/day, either schedule): has not yet been observed
hematological improvement ([5]; Cohort 2, 18 mg, individual patients): major hematological improvement; also recorded: minor hematological improvement
Efficacy ([5]; 12 mg): Possible
Efficacy ([5]; 18 mg): Possible
patients with hematological improvement ([5]; cohort 2 (18 mg)): three
patients with complete response (CR) ([5]; first 45 pts): Four
responders that were WT ([5]; human, in vivo): five
non-responding patients with ITD mutations with initial rapid clearing of peripheral blasts ([5]; intermittent dosing): Six of the 9
IC50 (RS4-11 cell line): 1000 nM
ΔT [6]: 6 h
duration of steady state exposure ([7]; human): 24 h
plasma exposure versus dose ([7]; human): dose proportional
bioavailability in humans ([7]; human, po, 12 mg): good bioavailability
human bioavailability ([7]; 18 mg): good human bioavailability
AUC (in vivo): ~3.2 µM·h
AUC(0-t) (in vivo): 1790 ng·h/mL
half-life (clinical; 12 mg): ~67.2 h
AUC(0-t) (clinical; 12 mg): 757 ng·h/mL
half-life (clinical; 18 mg): 24 to 67.2 h
AUC(0-t) (clinical; 18 mg): 1380 ng·h/mL
SS Cp ([8]; Mouse, 1 mg/kg): 143 ng/mL
efficacious plasma levels over the MV4;11 IC50 ([8]; mice, efficacious dose 1 mg/kg): about 800 fold
duration of steady state exposure ([8]; mouse): 6 h
Cmax [9]: 11.2 ng/mL
